Results published in ChEMBL document CHEMBL4270599, “Synthesis of a 3'-C-ethynyl-β-d-ribofuranose purine nucleoside library: Discovery of C7-deazapurine analogs as potent antiproliferative nucleosides” (Eur J Med Chem, 2018).

How the values were obtained:
Type in all cases: functional
SK-MEL-28 [1] = assay: Growth inhibition of human SK-MEL-28 cells assessed as cell growth at 10^-8 M incubated for 48 hrs by sulforhodamine B assay relative to control; conditions: SK-MEL-28, 48 h, read-out: Activity
SF-268 [2] = assay: Growth inhibition of human SF268 cells assessed as cell growth at 10^-7 M incubated for 48 hrs by sulforhodamine B assay relative to control; conditions: SF-268, 48 h, read-out: Activity
SK-MEL-28 [3] = assay: Cytotoxicity against human SK-MEL-28 cells after 48 hrs by SRB assay; conditions: SK-MEL-28, 48 h
OVCAR-4 = assay: Growth inhibition of human OVCAR4 cells assessed as cell growth at 10^-5 M incubated for 48 hrs by sulforhodamine B assay relative to control; conditions: OVCAR-4, 48 h, read-out: Activity
COLO 205 = assay: Growth inhibition of human COLO205 cells assessed as cell growth at 10^-5 M incubated for 48 hrs by sulforhodamine B assay relative to control; conditions: COLO 205, 48 h, read-out: Activity
MOLT-4 = assay: Growth inhibition of human MOLT4 cells assessed as cell growth at 10^-5 M incubated for 48 hrs by sulforhodamine B assay relative to control; conditions: MOLT-4, 48 h, read-out: Activity
UO-31 = assay: Cytotoxicity against human UO31 cells after 48 hrs by SRB assay; conditions: UO-31, 48 h
RPMI-8226 [4] = assay: Growth inhibition of human RPMI8226 cells assessed as cell growth at 10^-8 M incubated for 48 hrs by sulforhodamine B assay relative to control; conditions: RPMI-8226, 48 h, read-out: Activity
SW-620 = assay: Growth inhibition of human SW620 cells assessed as cell growth at 10^-6 M incubated for 48 hrs by sulforhodamine B assay relative to control; conditions: SW-620, 48 h, read-out: Activity
A549 = assay: Growth inhibition of human A549/ATCC cells assessed as cell growth at 10^-8 M incubated for 48 hrs by sulforhodamine B assay relative to control; conditions: A549, 48 h, read-out: Activity
MDA-MB-435 = assay: Growth inhibition of human MDA-MB-435 cells assessed as cell growth at 10^-8 M incubated for 48 hrs by sulforhodamine B assay relative to control; conditions: MDA-MB-435, 48 h, read-out: Activity
CCRF-CEM [5] = assay: Cytotoxicity against human CCRF-CEM cells after 48 hrs by SRB assay
SNB-75 = assay: Cytotoxicity against human SNB75 cells after 48 hrs by SRB assay; conditions: SNB-75, 48 h
CCRF-CEM [6] = assay: Growth inhibition of human CCRF-CEM cells assessed as cell growth at 10^-7 M incubated for 48 hrs by sulforhodamine B assay relative to control; conditions: read-out: Activity
SF-268 [7] = assay: Growth inhibition of human SF268 cells assessed as cell growth at 10^-5 M incubated for 48 hrs by sulforhodamine B assay relative to control; conditions: SF-268, 48 h, read-out: Activity
HCT-116 = assay: Growth inhibition of human HCT116 cells assessed as cell growth at 10^-8 M incubated for 48 hrs by sulforhodamine B assay relative to control; conditions: HCT-116, 48 h, read-out: Activity
UACC-257 = assay: Growth inhibition of human UACC257 cells assessed as cell growth at 10^-7 M incubated for 48 hrs by sulforhodamine B assay relative to control; conditions: UACC-257, 48 h, read-out: Activity
HCT-15 = assay: Growth inhibition of human HCT15 cells assessed as cell growth at 10^-6 M incubated for 48 hrs by sulforhodamine B assay relative to control; conditions: HCT-15, 48 h, read-out: Activity
RPMI-8226 [8] = assay: Growth inhibition of human RPMI8226 cells assessed as cell growth at 10^-6 M incubated for 48 hrs by sulforhodamine B assay relative to control; conditions: RPMI-8226, 48 h, read-out: Activity
DU-145 = assay: Growth inhibition of human DU145 cells assessed as cell growth at 10^-4 M incubated for 48 hrs by sulforhodamine B assay relative to control; conditions: DU-145, 48 h, read-out: Activity
NCI-H322M = assay: Growth inhibition of human NCI-H322M cells assessed as cell growth at 10^-6 M incubated for 48 hrs by sulforhodamine B assay relative to control; conditions: read-out: Activity
SK-OV-3 = assay: Growth inhibition of human SKOV3 cells assessed as cell growth at 10^-8 M incubated for 48 hrs by sulforhodamine B assay relative to control; conditions: SK-OV-3, 48 h, read-out: Activity
SR = assay: Growth inhibition of human SR cells assessed as cell growth at 10^-6 M incubated for 48 hrs by sulforhodamine B assay relative to control; conditions: read-out: Activity
EKVX = assay: Growth inhibition of human EKVX cells assessed as cell growth at 10^-6 M incubated for 48 hrs by sulforhodamine B assay relative to control; conditions: read-out: Activity
HCC 2998 = assay: Growth inhibition of human HCC2998 cells assessed as cell growth at 10^-8 M incubated for 48 hrs by sulforhodamine B assay relative to control; conditions: HCC 2998, 48 h, read-out: Activity
NCI/ADR-RES = assay: Growth inhibition of human NCI/ADR-RES cells assessed as cell growth at 10^-8 M incubated for 48 hrs by sulforhodamine B assay relative to control; conditions: read-out: Activity
Malme-3M = assay: Growth inhibition of human MALME-3M cells assessed as cell growth at 10^-6 M incubated for 48 hrs by sulforhodamine B assay relative to control; conditions: read-out: Activity
LOX IMVI = assay: Cytotoxicity against human LOXIMVI cells after 48 hrs by SRB assay
TK-10 = assay: Cytotoxicity against human TK10 cells after 48 hrs by SRB assay; conditions: TK-10, 48 h
OVCAR-3 = assay: Growth inhibition of human OVCAR3 cells assessed as cell growth at 10^-6 M incubated for 48 hrs by sulforhodamine B assay relative to control; conditions: OVCAR-3, 48 h, read-out: Activity
HOP-92 = assay: Growth inhibition of human HOP92 cells assessed as cell growth at 10^-6 M incubated for 48 hrs by sulforhodamine B assay relative to control; conditions: HOP-92, 48 h, read-out: Activity
PC-3 = assay: Growth inhibition of human PC3 cells assessed as cell growth at 10^-4 M incubated for 48 hrs by sulforhodamine B assay relative to control; conditions: PC-3, 48 h, read-out: Activity
[9] = read-out: pLC50 (the source's name) (converted)

## C#C[C@@]1(O)[C@@H](CO)O[C@@H](n2cc(F)c3c(N)ncnc32)[C@@H]1O
SK-MEL-28 [1]
  growth at 0.01 µM: 102%
SF-268 [2]
  growth at 0.1 µM: 105%
SK-MEL-28 [3]; read-out: TGI
  TGI: > 100000 nM
SK-MEL-28 [3]; read-out: pGI50 (converted)
  GI50: 4270 nM
SK-MEL-28 [3]; [9]
  CC50: > 100000 nM
SK-MEL-28 [3]; read-out: pTGI (converted)
  TGI: > 100000 nM
OVCAR-4
  growth at 10 µM: -3%
COLO 205
  growth at 10 µM: -52%
MOLT-4
  growth at 10 µM: 2%
UO-31; read-out: TGI
  TGI: 2480 nM
UO-31; read-out: pGI50 (converted)
  GI50: 468 nM
UO-31; [9]
  CC50: > 100000 nM
UO-31; read-out: pTGI (converted)
  TGI: 2510 nM
RPMI-8226 [4]
  growth at 0.01 µM: 94%
SW-620
  growth at 1 µM: 4%
A549
  growth at 0.01 µM: 93%
MDA-MB-435
  growth at 0.01 µM: 98%
CCRF-CEM [5]; read-out: TGI
  TGI: > 100000 nM
CCRF-CEM [5]; read-out: pGI50 (converted)
  GI50: 339 nM
CCRF-CEM [5]; [9]
  CC50: > 100000 nM
CCRF-CEM [5]; read-out: pTGI
  TGI: > 100000 nM
SNB-75; read-out: TGI
  TGI: 2320 nM
SNB-75; read-out: pGI50 (converted)
  GI50: 1020 nM
SNB-75; [9]
  CC50: 5250 nM
SNB-75; read-out: pTGI (converted)
  TGI: 2340 nM
CCRF-CEM [6]
  growth at 0.1 µM: 81%
SF-268 [7]
  growth at 10 µM: 7%
HCT-116
  growth at 0.01 µM: 98%
UACC-257
  growth at 0.1 µM: 85%
HCT-15
  growth at 1 µM: 18%
RPMI-8226 [8]
  growth at 1 µM: 1%
DU-145
  growth at 100 µM: -4%
NCI-H322M
  growth at 1 µM: 31%
SK-OV-3
  growth at 0.01 µM: 96%
SR
  growth at 1 µM: 9%
EKVX
  growth at 1 µM: 43%
HCC 2998
  growth at 0.01 µM: 98%
NCI/ADR-RES
  growth at 0.01 µM: 100%
Malme-3M
  growth at 1 µM: 12%
LOX IMVI; read-out: TGI
  TGI: 1110 nM
LOX IMVI; read-out: pGI50 (converted)
  GI50: 282 nM
LOX IMVI; [9]
  CC50: 4570 nM
LOX IMVI; read-out: pTGI (converted)
  TGI: 1120 nM
TK-10; read-out: LC50 (the source's name)
  CC50: > 100000 nM
TK-10; read-out: TGI
  TGI: 6560 nM
TK-10; read-out: pGI50 (converted)
  GI50: 741 nM
TK-10; read-out: pTGI (converted)
  TGI: 6610 nM
OVCAR-3
  growth at 1 µM: 52%
HOP-92
  growth at 1 µM: 24%
PC-3
  growth at 100 µM: -31%
